Measurements: PubChem BioAssay AID1919006 (Molecular Pharmacology Branch, DTP, NCI, 2023)

Test system: 885512-296-R-J2-PDC complex spheroid growth, % test/control
Assay: Anticancer human tumor 885512-296-R-J2-PDC patient-derived breast carcinoma cell line growth inhibition [AhR]
Settings: for IC50: curve of first compound; for viability, T/C: stronger effect = lower value
Outline: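 Complex tumor spheroids co-cultured with HUVEC and human MSC stroma; AhR antagonists tested in combination with standard-of-care and investigational agents. Top concentration at or near clinical Cmax (else 10 microM), half-log dilutions; growth expressed as percent test/control.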

[1] = second compound 0.1 µM, first compound 0.00316 µM
[2] = second compound 0.1 µM, first compound 0.01 µM
[3] = second compound 0.1 µM, first compound 0.0316 µM
[4] = second compound 0.1 µM, first compound 0.1 µM
[5] = second compound 0.316 µM, first compound 0.00316 µM
[6] = second compound 0.316 µM, first compound 0.01 µM
[7] = second compound 0.316 µM, first compound 0.0316 µM
[8] = second compound 0.316 µM, first compound 0.1 µM
[9] = second compound 1 µM, first compound 0.00316 µM
[10] = second compound 1 µM, first compound 0.01 µM
[11] = second compound 1 µM, first compound 0.0316 µM
[12] = second compound 1 µM, first compound 0.1 µM
[13] = second compound 3.16 µM, first compound 0.00316 µM
[14] = second compound 3.16 µM, first compound 0.01 µM
[15] = second compound 3.16 µM, first compound 0.0316 µM
[16] = second compound 3.16 µM, first compound 0.1 µM
[17] = second compound 10 µM, first compound 0.00316 µM
[18] = second compound 10 µM, first compound 0.01 µM
[19] = second compound 10 µM, first compound 0.0316 µM
[20] = second compound 10 µM, first compound 0.1 µM
[21] = second compound 0.1 µM, first compound 0.316 µM
[22] = second compound 0.1 µM, first compound 1 µM
[23] = second compound 0.1 µM, first compound 3.16 µM
[24] = second compound 0.1 µM, first compound 10 µM
[25] = second compound 0.316 µM, first compound 0.316 µM
[26] = second compound 0.316 µM, first compound 1 µM
[27] = second compound 0.316 µM, first compound 3.16 µM
[28] = second compound 0.316 µM, first compound 10 µM
[29] = second compound 1 µM, first compound 0.316 µM
[30] = second compound 1 µM, first compound 1 µM
[31] = second compound 1 µM, first compound 3.16 µM
[32] = second compound 1 µM, first compound 10 µM
[33] = second compound 3.16 µM, first compound 0.316 µM
[34] = second compound 3.16 µM, first compound 1 µM
[35] = second compound 3.16 µM, first compound 3.16 µM
[36] = second compound 3.16 µM, first compound 10 µM
[37] = second compound 10 µM, first compound 0.316 µM
[38] = second compound 10 µM, first compound 1 µM
[39] = second compound 10 µM, first compound 3.16 µM
[40] = second compound 10 µM, first compound 10 µM
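Further: spheroids exposed to compounds for seven days.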

| SMILES | IC50 (second compound 0.1 µM) | IC50 (second compound 0.316 µM) | IC50 (second compound 1 µM) | IC50 (second compound 3.16 µM) | IC50 (second compound 10 µM) | viability, T/C [3] | viability, T/C [4] | viability, T/C [7] | viability, T/C [8] | viability, T/C [11] | viability, T/C [12] | viability, T/C [15] | viability, T/C [16] | viability, T/C [19] | viability, T/C [20] | viability, T/C [21] | viability, T/C [22] | viability, T/C [25] | viability, T/C [26] | viability, T/C [29] | other results |
| --- | --- | --- | --- | --- | --- | --- | --- | --- | --- | --- | --- | --- | --- | --- | --- | --- | --- | --- | --- | --- | --- |
| CC[C@@]1(O)C(=O)OCc2c1cc1n(c2=O)Cc2cc3c(CN(C)C)c(O)ccc3nc2-1 + Cc1ccccc1N=Nc1ccc(NC(=O)c2ccnn2C)c(C)c1 | 5.02 nM | 5.48 nM | 5.01 nM | 4.59 nM | 2.08 nM | 8.84% | 6.78% | 8.71% | 7.03% | 8.48% | 8.35% | 9.81% | 7.76% | 9.21% | 7.45% | – | – | – | – | – | viability, T/C (second compound 0.1 µM, first compound 0.000316 µM): 109%; viability, T/C (second compound 0.1 µM, first compound 0.001 µM): 103%; viability, T/C [1]: 67.5%; viability, T/C [2]: 23.7%; viability, T/C (second compound 0.316 µM, first compound 0.000316 µM): 113%; viability, T/C (second compound 0.316 µM, first compound 0.001 µM): 113%; viability, T/C [5]: 74.7%; viability, T/C [6]: 23%; viability, T/C (second compound 1 µM, first compound 0.000316 µM): 117%; viability, T/C (second compound 1 µM, first compound 0.001 µM): 111%; viability, T/C [9]: 70.7%; viability, T/C [10]: 18.9%; viability, T/C (second compound 3.16 µM, first compound 0.000316 µM): 107%; viability, T/C (second compound 3.16 µM, first compound 0.001 µM): 95.4%; viability, T/C [13]: 61.1%; viability, T/C [14]: 26.5%; viability, T/C (second compound 10 µM, first compound 0.000316 µM): 54.6%; viability, T/C (second compound 10 µM, first compound 0.001 µM): 57.7%; viability, T/C [17]: 46.3%; viability, T/C [18]: 21.4% |
| COc1cc(C2c3cc4c(cc3C(OC3OC5COC(C)OC5C(O)C3O)C3COC(=O)C23)OCO4)cc(OC)c1O (stereo not given) + Cc1ccccc1N=Nc1ccc(NC(=O)c2ccnn2C)c(C)c1 | 404 nM | 415 nM | 423 nM | 290 nM | 186 nM | 101% | 115% | 120% | 107% | 96.2% | 102% | 81.4% | 71.5% | 57.4% | 63.5% | 59.6% | 19.2% | 60.2% | 17.9% | 60.8% | viability, T/C [23]: 7.36%; viability, T/C [24]: 7.36%; viability, T/C [27]: 9.41%; viability, T/C [28]: 9.17%; viability, T/C [30]: 17.3%; viability, T/C [31]: 9.27%; viability, T/C [32]: 8.44%; viability, T/C [33]: 49.5%; viability, T/C [34]: 15.3%; viability, T/C [35]: 7.76%; viability, T/C [36]: 7.73%; viability, T/C [37]: 41.1%; viability, T/C [38]: 13.5%; viability, T/C [39]: 8.01%; viability, T/C [40]: 7.22% |
| Nc1ccn(C2OC(CO)C(O)C2(F)F)c(=O)n1 (stereo not given) + Cc1ccccc1N=Nc1ccc(NC(=O)c2ccnn2C)c(C)c1 | < 31.6 nM | < 31.6 nM | < 31.6 nM | < 31.6 nM | < 31.6 nM | 3.22% | 3.21% | 3.01% | 3.13% | 3.39% | 3.19% | 3.31% | 3.09% | 3.17% | 3.46% | 3.37% | 3.91% | 3.98% | 4.91% | 5.43% | viability, T/C [23]: 5.19%; viability, T/C [24]: 4.82%; viability, T/C [27]: 7.26%; viability, T/C [28]: 4.9%; viability, T/C [30]: 5.88%; viability, T/C [31]: 5.6%; viability, T/C [32]: 6.93%; viability, T/C [33]: 5.1%; viability, T/C [34]: 5.57%; viability, T/C [35]: 4.88%; viability, T/C [36]: 5.93%; viability, T/C [37]: 4.17%; viability, T/C [38]: 4.62%; viability, T/C [39]: 5.33%; viability, T/C [40]: 5.12% |
| Nc1ncn(C2CC(O)C(CO)O2)c(=O)n1 (stereo not given) + Cc1ccccc1N=Nc1ccc(NC(=O)c2ccnn2C)c(C)c1 | 949 nM | 816 nM | 840 nM | 930 nM | > 1000 nM | 112% | 106% | 122% | 111% | 122% | 106% | 112% | 95.5% | 62.8% | 67% | 74.2% | 48.9% | 78.3% | 43.9% | 80% | viability, T/C [1]: 114%; viability, T/C [2]: 128%; viability, T/C [5]: 109%; viability, T/C [6]: 114%; viability, T/C [9]: 111%; viability, T/C [10]: 108%; viability, T/C [30]: 44.7%; viability, T/C [13]: 88.8%; viability, T/C [14]: 79.2%; viability, T/C [33]: 77.3%; viability, T/C [34]: 48.1%; viability, T/C [17]: 50.6%; viability, T/C [18]: 58.4%; viability, T/C [37]: 60.1%; viability, T/C [38]: 48.3% |
